Experimental data from ChEMBL document CHEMBL1201862, “PubChem BioAssay data set” (2004).
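Assay format: 96-well plates, 48-hour exposure. At the GI50, growth is halved.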 The source made the active and inactive calls. No stated cut-off is given here; in the data, active = GI50 up to about 1.1 µM and inactive = higher.

Columns and labels:
Experiment in all cases: NCI tumour cell line growth inhibition, 48 h
[1] = test system: COLO 205
[2] = test system: SF-539
[3] = test system: UACC-62
[4] = test system: HL-60
[5] = test system: Hs-578T
[6] = test system: CCRF-CEM
[7] = test system: SR
[8] = test system: NCI-H522
[9] = test system: SNB-75
[10] = test system: OVCAR-8
[11] = test system: KM12
[12] = test system: HOP-62
[13] = test system: SNB-19
[14] = test system: M14
[15] = test system: PC-3
[16] = test system: NCI-H460
[17] = test system: OVCAR-3
[18] = test system: SK-MEL-2
[19] = test system: U-251

Measured: GI50

COc1cc(C2SC(=N)Nc3c2c(C)nn3C(=O)Cc2ccccc2)ccc1O (configuration not stated)
inactive: [1] > 100 µM | [2] > 100 µM | [3] > 100 µM | [4] > 100 µM | [5] > 100 µM | [6] > 100 µM | [7] > 100 µM | [8] > 100 µM | [9] 26.8 µM | [10] > 100 µM | [11] > 100 µM | [12] > 100 µM | [13] > 100 µM | [14] > 100 µM | [15] > 100 µM | [16] > 100 µM

CC(=O)NN/C=N/C(C#N)=C(\N)C#N
inactive: [1] > 100 µM | [2] > 100 µM | [3] > 100 µM | [4] > 100 µM | [5] > 100 µM | [17] > 100 µM | [6] > 100 µM | [7] > 100 µM | [8] > 100 µM | [9] > 100 µM | [10] > 100 µM | [11] > 100 µM | [12] > 100 µM | [18] > 100 µM | [13] > 100 µM | [14] > 100 µM | [15] > 100 µM | [19] > 100 µM | [16] > 100 µM

COC[C@@H](/N=C/c1ccc([N+](=O)[O-])cc1)C(C)C
inactive: [3] > 100 µM | [5] > 100 µM | [6] 75.9 µM | [7] 92.7 µM | [8] > 100 µM | [9] > 100 µM | [10] > 100 µM | [11] > 100 µM | [18] > 100 µM | [13] > 100 µM | [14] 70.1 µM | [15] > 100 µM | [19] > 100 µM | [16] > 100 µM

COc1cccc(C23CCCC(C2)N(C)CC3OC(=O)c2ccccc2)c1OC (configuration not stated)
inactive: [1] 14.1 µM | [2] 52.5 µM | [3] 25.9 µM | [4] 10.2 µM | [5] 24.4 µM | [17] 24.8 µM | [6] 12.5 µM | [7] 16.2 µM | [8] 22.6 µM | [10] 16.4 µM | [11] 22.9 µM | [12] 31.3 µM | [18] 31.8 µM | [13] 35.6 µM | [14] 15.9 µM | [15] 23.8 µM | [19] 28.3 µM | [16] 20.6 µM
